According to US20120009280A1, “METHOD OF REDUCING THE RATE OF DEGRADATION OF A BIOLOGICAL MATERIAL” (Bio-Energy Ingredients Limited, priority 2009, published 2012):

Columns and labels:
mould = assay: Mould count of spent brewer's / wet distiller's grains stored at ambient temperature; type: cell-based
Protocol: Samples of Portion 1 (“AR”), Portion 3 (“SO”) and Portion 5 (“SH”) were then delivered to a microbiological testing facility about 15 kilometres from the treatment laboratory. Each was tested for initial total microbial, yeast and mould counts, respectively.
Separate untreated samples were similarly stored under insect-proof screens at ambient temperature for seven days (as shown in Tables 1 and 2). During the trial period the ambient temperature ranged from 11 to 33 degrees C.
The free moisture content on the initial spent brewer's grains was determined to be 78.1% m/m. After exposure to the environment for seven days, all of the samples were tested at a South African National Accreditation System (SANAS) approved microbiological testing facility. Each was tested for total micro-organism, yeast and mould counts to determine the affect of the various treatments. A similar procedure to that described in K. A. Rosentrater et al, Food Bioprocess Technol (2008) was used for the microbiological evaluation.
At the laboratory, the samples were thoroughly mixed and initially split into a first portion (Portion 1) and a second portion (Portion 2). Portion 1 was left untreated. A sample of Portion 1, was delivered immediately to a microbiological testing facility about 15 kilometres away from the treatment laboratory and was tested for initial total microbial, yeast and mould counts, respectively. No water removal prior to treatment was done in this experiment as was the case in Example 8 wherein a similar wet material was partially dewatered by pressing and the residue treated with 10% (w/w/) calcium oxide.
Samples from Portion 2 were subjected to treatment with varying amounts of a powdered, commercially-available calcium oxide containing approximately 94% calcium oxide (CaO) as shown in Table 32. […] The samples were stored in batches (according to the calcium oxide treatment) under insect-proof screens at ambient temperature for fifty six days. Separate untreated samples were similarly stored under insect-proof screens at ambient temperature for a total of 56 days. During the trial period the ambient temperature ranged from 10 to 30 degrees C. As this period was the southern hemisphere spring/early summer, the humidity as well as ambient temperatures varied widely.
The free moisture content on the initial spent brewer's grains was determined to be 79.4% m/m. After exposure to the environment for seven days, all of the samples were tested at a South African National Accreditation System (SANAS) approved microbiological testing facility. Each was tested for total micro-organism, yeast and mould counts to determine the affect of the various treatments. A similar procedure to that described in K. A. Rosentrater et al, Food Bioprocess Technol (2008) was used for the microbiological evaluation.
Samples from each treatment were drawn every seven days. No further calcium oxide treatment or agitation took place after the initial mix. In each case the entire sample was isolated and delivered to the microbiological testing facility.
The calcium oxide treatment trial described in Example 9 wherein wet distiller's grains were treated with 2.5%, 5% and 10.0% calcium oxide, respectively, versus untreated material was repeated using lower doses of calcium oxide. In this trial the same source of wet distiller's grains (again with now partial water removal prior to treatment) was treated. Also, the same protocol as described in Example 9 was applied, but at lower doses of calcium oxide i.e. 0.5%, 1.0%, 1.5%, 2.0% and 2.5%, respectively, versus untreated material.
In this trial the same source of wet distiller's grains (again with now partial water removal prior to treatment) was treated. Also, the same protocol as described in Example 9 was applied.

[1] = pH of suspensions of grain samples in distilled water or PBS; conditions: for pH: 1% (w/w) in distilled water
Protocol: The untreated sample (A) was compared visually against the corresponding quicklime-treated sample (B).
On Day 7, 10 g amounts of each sample were suspended in either 90 ml PBS or 90 ml sterile distilled water and shaken for 10 minutes. The pH of each suspension was then measured and compared.
On Day 9, 10 g of each sample was suspended in 90 ml PBS and shaken for 10 minutes. The pH was measured.

yeast = assay: Yeast count of spent brewer's / wet distiller's grains stored at ambient temperature; type: cell-based
[2] = wet distiller's grains, 0.5% CaO (w/w), day 1
[3] = wet distiller's grains, 0.5% CaO (w/w), day 3
[4] = wet distiller's grains, 0.5% CaO (w/w), day 6
[5] = wet distiller's grains, 0.5% CaO (w/w), day 8
[6] = wet distiller's grains, 1.0% CaO (w/w), day 2
[7] = wet distiller's grains, 1.0% CaO (w/w), day 3
[8] = wet distiller's grains, 1.0% CaO (w/w), day 6
[9] = wet distiller's grains, 1.0% CaO (w/w), day 8
[10] = wet distiller's grains, 1.0% CaO (w/w), day 10
[11] = wet distiller's grains, 1.5% CaO (w/w), day 1
[12] = wet distiller's grains, 1.5% CaO (w/w), day 2
[13] = wet distiller's grains, 1.5% CaO (w/w), day 3
[14] = wet distiller's grains, 1.5% CaO (w/w), day 6
[15] = wet distiller's grains, 1.5% CaO (w/w), day 8
[16] = wet distiller's grains, 2.0% CaO (w/w), day 1
[17] = wet distiller's grains, 2.0% CaO (w/w), day 3
[18] = wet distiller's grains, 2.0% CaO (w/w), day 6
[19] = wet distiller's grains, 2.0% CaO (w/w), day 8
[20] = wet distiller's grains, 2.0% CaO (w/w), day 10
[21] = wet distiller's grains, 2.5% CaO (w/w), day 1
[22] = wet distiller's grains, 2.5% CaO (w/w), day 2
[23] = wet distiller's grains, 2.5% CaO (w/w), day 3
[24] = wet distiller's grains, 2.5% CaO (w/w), day 6
[25] = wet distiller's grains, 2.5% CaO (w/w), day 7
[26] = wet distiller's grains, 2.5% CaO (w/w), day 8
[27] = wet distiller's grains, 2.5% CaO (w/w), day 10
[28] = wet distiller's grains, 2.5% CaO (w/w), day 21
[29] = wet distiller's grains, 2.5% CaO (w/w), day 56
[30] = wet distiller's grains, 5.0% CaO (w/w), day 7
[31] = wet distiller's grains, 5.0% CaO (w/w), day 14
[32] = wet distiller's grains, 5.0% CaO (w/w), day 42
[33] = wet distiller's grains, 5.0% CaO (w/w), day 49
[34] = wet distiller's grains, 5.0% CaO (w/w), day 56
[35] = wet distiller's grains, 10.0% CaO (w/w), day 7
[36] = wet distiller's grains, 10.0% CaO (w/w), day 21
[37] = wet distiller's grains, 10.0% CaO (w/w), day 42
[38] = wet distiller's grains, 10.0% CaO (w/w), day 49
[39] = wet distiller's grains, 10.0% CaO (w/w), day 56

[O]=[Ca] [calcium oxide]
Mould Count (mould; 5% CaO (w/w) powder, week 1): 10 cfu/gram | Mould Count (mould; 5% CaO (w/w) powder, week 2): 10 cfu/gram | Mould Count (mould; 5% CaO (w/w) powder, week 3): 10 cfu/gram | Mould Count (mould; 5% CaO (w/w) powder, week 4): 10 cfu/gram | Mould Count (mould; 5% CaO (w/w) powder, week 5): 10 cfu/gram | Mould Count (mould; [2]): <10 cfu/gram | Mould Count (mould; wet distiller's grains, 0.5% CaO (w/w), day 2): 30 cfu/gram | Mould Count (mould; [3]): 100 cfu/gram | Mould Count (mould; [4]): 37000 cfu/gram | Mould Count (mould; [5]): <10 cfu/gram | Mould Count (mould; wet distiller's grains, 1.0% CaO (w/w), day 1): <10 cfu/gram | Mould Count (mould; [6]): <10 cfu/gram | Mould Count (mould; [7]): <10 cfu/gram | Mould Count (mould; [8]): <10 cfu/gram | Mould Count (mould; [9]): <10 cfu/gram | Mould Count (mould; [10]): 91000 cfu/gram | Mould Count (mould; [11]): <10 cfu/gram | Mould Count (mould; [12]): <10 cfu/gram | Mould Count (mould; [13]): <10 cfu/gram | Mould Count (mould; [14]): <10 cfu/gram | Mould Count (mould; [15]): <10 cfu/gram | Mould Count (mould; wet distiller's grains, 1.5% CaO (w/w), day 10): <110 cfu/gram | Mould Count (mould; [16]): <10 cfu/gram | Mould Count (mould; wet distiller's grains, 2.0% CaO (w/w), day 2): <10 cfu/gram | Mould Count (mould; [17]): <10 cfu/gram | Mould Count (mould; [18]): <10 cfu/gram | Mould Count (mould; [19]): <10 cfu/gram | Mould Count (mould; [20]): <10 cfu/gram | Mould Count (mould; [21]): <10 cfu/gram | Mould Count (mould; [22]): <10 cfu/gram | Mould Count (mould; [23]): <10 cfu/gram | Mould Count (mould; [24]): <10 cfu/gram | Mould Count (mould; [25]): 10 cfu/gram | Mould Count (mould; [26]): <10 cfu/gram | Mould Count (mould; [27]): <10 cfu/gram | Mould Count (mould; wet distiller's grains, 2.5% CaO (w/w), day 14): 14,000 cfu/gram | Mould Count (mould; [28]): 170,000 cfu/gram | Mould Count (mould; wet distiller's grains, 2.5% CaO (w/w), day 42): 850,000 cfu/gram | Mould Count (mould; wet distiller's grains, 2.5% CaO (w/w), day 49): 320,000 cfu/gram | Mould Count (mould; [29]): 1,240,000 cfu/gram | Mould Count (mould; [30]): 10 cfu/gram | Mould Count (mould; [31]): 10 cfu/gram | Mould Count (mould; wet distiller's grains, 5.0% CaO (w/w), day 21): 150 cfu/gram | Mould Count (mould; [32]): 20 cfu/gram | Mould Count (mould; [33]): 90 cfu/gram | Mould Count (mould; [34]): 90 cfu/gram | Mould Count (mould; [35]): 10 cfu/gram | Mould Count (mould; wet distiller's grains, 10.0% CaO (w/w), day 14): 10 cfu/gram | Mould Count (mould; [36]): 10 cfu/gram | Mould Count (mould; [37]): 70 cfu/gram | Mould Count (mould; [38]): 80 cfu/gram | Mould Count (mould; [39]): 16 cfu/gram | pH ([1]; 0.5% CaO (w/w), day 1): 7.97 | pH ([1]; 0.5% CaO (w/w), day 2): 8.06 | pH ([1]; 0.5% CaO (w/w), day 3): 7.63 | pH ([1]; 0.5% CaO (w/w), day 6): 7.38 | pH ([1]; 0.5% CaO (w/w), day 8): 7.80 | pH ([1]; 1.0% CaO (w/w), day 1): 8.86 | pH ([1]; 1.0% CaO (w/w), day 2): 8.82 | pH ([1]; 1.0% CaO (w/w), day 3): 9.19 | pH ([1]; 1.0% CaO (w/w), day 6): 9.21 | pH ([1]; 1.0% CaO (w/w), day 8): 7.89 | pH ([1]; 1.0% CaO (w/w), day 10): 8.27 | pH ([1]; 1.5% CaO (w/w), day 1): 9.10 | pH ([1]; 1.5% CaO (w/w), day 2): 9.15 | pH ([1]; 1.5% CaO (w/w), day 3): 9.95 | pH ([1]; 1.5% CaO (w/w), day 6): 9.84 | pH ([1]; 1.5% CaO (w/w), day 8): 9.10 | pH ([1]; 1.5% CaO (w/w), day 10): 10.84 | pH ([1]; 2.0% CaO (w/w), day 1): 10.68 | pH ([1]; 2.0% CaO (w/w), day 2): 10.10 | pH ([1]; 2.0% CaO (w/w), day 3): 9.48 | pH ([1]; 2.0% CaO (w/w), day 6): 11.22 | pH ([1]; 2.0% CaO (w/w), day 8): 9.76 | pH ([1]; 2.0% CaO (w/w), day 10): 9.97 | pH ([1]; 2.5% CaO (w/w), day 1): 11.48 | pH ([1]; 2.5% CaO (w/w), day 2): 11.08 | pH ([1]; 2.5% CaO (w/w), day 3): 11.41 | pH ([1]; 2.5% CaO (w/w), day 6): 11.55 | pH ([1]; 2.5% CaO (w/w), day 8): 10.29 | pH ([1]; 2.5% CaO (w/w), day 10): 8.87 | pH ([1]; 5% CaO (w/w) powder, week 1): 11.36 | pH ([1]; 5% CaO (w/w) powder, week 2): 11.00 | pH ([1]; 5% CaO (w/w) powder, week 3): 12.20 | pH ([1]; 5% CaO (w/w) powder, week 4): 11.61 | pH ([1]; 5% CaO (w/w) powder, week 5): 11.34 | pH of treated wet distiller's grains ([1]; calcium oxide 0.5% (w/w), Example 14): below 8 | Yeast Count (yeast; 5% CaO (w/w) powder, week 1): 10 cfu/gram | Yeast Count (yeast; 5% CaO (w/w) powder, week 2): 10 cfu/gram | Yeast Count (yeast; 5% CaO (w/w) powder, week 3): 113 cfu/gram | Yeast Count (yeast; 5% CaO (w/w) powder, week 5): 10 cfu/gram | Yeast Count (yeast; [2]): <10 cfu/gram | Yeast Count (yeast; [3]): <10 cfu/gram | Yeast Count (yeast; [4]): 40000 cfu/gram | Yeast Count (yeast; [5]): <10 cfu/gram | Yeast Count (yeast; [6]): <10 cfu/gram | Yeast Count (yeast; [7]): <10 cfu/gram | Yeast Count (yeast; [8]): <10 cfu/gram | Yeast Count (yeast; [9]): <10 cfu/gram | Yeast Count (yeast; [10]): 20 cfu/gram | Yeast Count (yeast; [11]): <10 cfu/gram | Yeast Count (yeast; [12]): <10 cfu/gram | Yeast Count (yeast; [13]): <10 cfu/gram | Yeast Count (yeast; [14]): <10 cfu/gram | Yeast Count (yeast; [15]): <10 cfu/gram | Yeast Count (yeast; [16]): <10 cfu/gram | Yeast Count (yeast; [17]): <10 cfu/gram | Yeast Count (yeast; [18]): <10 cfu/gram | Yeast Count (yeast; [19]): <10 cfu/gram | Yeast Count (yeast; [20]): <10 cfu/gram | Yeast Count (yeast; [21]): <10 cfu/gram | Yeast Count (yeast; [22]): <10 cfu/gram | Yeast Count (yeast; [23]): <10 cfu/gram | Yeast Count (yeast; [24]): <10 cfu/gram | Yeast Count (yeast; [25]): 10 cfu/gram | Yeast Count (yeast; [26]): <10 cfu/gram | Yeast Count (yeast; [27]): <10 cfu/gram | Yeast Count (yeast; [28]): 53,000 cfu/gram | Yeast Count (yeast; [29]): 115,000 cfu/gram | Yeast Count (yeast; [30]): 10 cfu/gram | Yeast Count (yeast; [31]): 10 cfu/gram | Yeast Count (yeast; [32]): 10 cfu/gram | Yeast Count (yeast; [33]): 20 cfu/gram | Yeast Count (yeast; [34]): 20 cfu/gram | Yeast Count (yeast; [35]): 10 cfu/gram | Yeast Count (yeast; [36]): 10 cfu/gram | Yeast Count (yeast; [37]): 10 cfu/gram | Yeast Count (yeast; [38]): 10 cfu/gram | Yeast Count (yeast; [39]): 10 cfu/gram
